The test system of one test is CRL1790. Description: MTT cell proliferation test, cytotoxicity on CRL1790 normal cells. In kind it is cell-based. The conditions noted are these: CRL1790, 72 hrs incubation, read-out: IC50 μmole/L, after 72 hrs incubation time. The protocol: (§1) IC50 Determination Using the Photometric Assay.
(§2) All cell lines, MCF7, HT29, HL60, A549 and CRL1790 were purchased from ATCC (American Cell Culture Collection). As exemplified the MCF-7 human breast cancer, the cell line was grown in Iscove's Modified Dulbecco's Medium, supplemented with 10% heat-inactivated fetal bovine serum, penicillin (100 Ul/mL), streptomycin (100 μg/mL), amphotericin (250 ng/mL), L-glutamine (2 mM) and 1% non-essential amino acids solution. The culture of HL-60 human leukemia cells was conducted in Iscove's Modified Dulbecco's Medium, supplemented with 20% heat-inactivated fetal bovine serum, penicillin (100 Ul/mL), streptomycin (100 μg/mL), amphotericin (250 ng/mL), L-glutamine (2 mM) and 1% non-essential amino acids solution.
(§3) The cells were grown at 37° C. in a humidified atmosphere containing 5% CO2. After 80% confluence was reached, the adherent MCF7, HL-60, cells were detached with a 0.25% trypsin solution and seeded in 96-well plates at a density of 5×10^4 cells/mL, 5×10^5 cells/mL, respectively.
[…] Pure DMSO diluted at the ratio of 1:1000 (v/v) in growth media was added to control wells. After 24, 48 or 72 hours of incubation the MTT-cell proliferation test was performed.
(§4) The test exploits the ability of living cells mitochondrial dehydrogenases to convert water-soluble 3-(4,5-dimethylthiazol-2-yl)-2,5-diphenyltetrazolium bromide (MTT) to non-soluble formazan. Briefly, after 3 hours incubation of cells with MTT solution the absorbance of formazan dissolved in isopropyl alcohol was measured in a Power Wavex microplate spectrophotometer (BioTek Instruments) at 570 nm.
In order to compare the cytotoxicity of studied compounds the IC50 values (the concentrations which induce the cell viability decreased to 50% of the control) were determined. The normalized MTT data were fitted to log(inhibitor) vs. response-variable slope model (R^2>0.9) described by the Equation 1 using Prism 5 ver 5.03 (GraphPad Software, Inc): […]
(§5) As a result log IC50 with the standard error were calculated.

In a further test the test system is HL60. Kind of test: MTT cell proliferation test, cytotoxicity on HL60 leukemia cells. In kind it is cell-based, human. As for the experimental part:
as §1, §2, §3
(§6) After overnight incubation, the increasing concentrations (0.1-20 μM) of studied compounds dissolved in DMSO were added to the wells. Pure DMSO diluted at the ratio of 1:1000 (v/v) in growth media was added to control wells. After 24, 48 or 72 hours of incubation the MTT-cell proliferation test was performed.
as §4
(§7) In order to compare the cytotoxicity of studied compounds the IC50 values (the concentrations which induce the cell viability decreased to 50% of the control) were determined. The normalized MTT data were fitted to log(inhibitor) vs. response-variable slope model (R^2>0.9) described by the Equation 1 using Prism 5 ver 5.03 (GraphPad Software, Inc):
(§8) [formula] where: V—cell viability, c—compound concentration, h—Hill coefficient.
as §5
A general note: Tetrazolium dyes change colour on reduction, which living cells bring about.

A further test relates to HT29. Description: MTT cell proliferation test, cytotoxicity on HT29 colon cancer cells. In kind it is cell-based. The conditions noted are these: HT29, 72 hrs incubation, read-out: IC50 μmole/L, after 72 hrs incubation time. As for the experimental part: as §1, §2, §3, §6, §4, §7, §8, §5
Another test has as its system MCF7. Description: MTT cell proliferation test, cytotoxicity on MCF7 breast cancer cells. Format: cell-based, human. The conditions noted are these: MCF7, 72 hrs incubation, read-out: IC50 μmole/L, after 72 hrs incubation time. As for the experimental part: as §1, §2, §3, §6, §4, §7, §8, §5
A further test deals with A549. Description: MTT cell proliferation test, cytotoxicity on A549 lung cancer cells. In kind it is cell-based. To be noted: A549, 72 hrs incubation, read-out: IC50 μmole/L, after 72 hrs incubation time. As for the experimental part:
as §1, §2, §3, §6, §4, §7, §8, §5

[1] abbreviates: Blood, HL60, 72 hrs incubation, MTT, read-out: IC50 μmole/L, after 72 hrs incubation time.

Read-outs that look alike come from different tables or passages of the source. Bounds are passed on as bounds.

As to `CCc1c2c(nc3ccc(O)c(CN4CCC4)c13)-c1cc3c(c(=O)n1[C@H]2CO)COC(=O)C3(O)CC` (stereo partly drawn) [Compound 6, 5-(R)-hydroxymethyl-7-ethyl-9-(N-azetidinyl)methyl-10-hydroxycamptothecin], the IC50 is > 1000 µmol/L in the test with CRL1790; 0.33 µmol/L in the test with HL60 (setting [1]); 6.98 µmol/L with HT29; 11.1 µmol/L in the test with MCF7; 5.22 µmol/L in the test with A549.
As for `CCc1c2c(nc3ccc(O)cc13)-c1cc3c(c(=O)n1[C@@H]2CN1CCCC1)COC(=O)C3(O)CC` (stereo partly drawn) [Compound 2, 5-(S)—(N-pyrrolidinyl)methyl-7-ethyl-10-hydroxycamptothecin], the IC50 with HL60 (setting [1]) was 0.007 µmol/L; with HT29, 0.49 µmol/L; in the test on MCF7, 0.96 µmol/L; in the test with A549, 0.272 µmol/L.
Regarding `CCc1c2c(nc3ccc(O)cc13)-c1cc3c(c(=O)n1[C@H]2CN1CCCC1)COC(=O)[C@]3(O)CC` [Compound 1, 5-(R)—(N-pyrrolidinyl)methyl-7-ethyl-10-hydroxycamptothecin], the IC50 worked out at 0.011 µmol/L in the test on HL60 (setting [1]), 0.6 µmol/L with HT29, 0.81 µmol/L in the test on MCF7 and 0.204 µmol/L in the test on A549.
For `CCc1c2c(nc3ccc(O)c(CN4CCC4)c13)-c1cc3c(c(=O)n1[C@@H]2CO)COC(=O)[C@]3(O)CC` [Compound 7, 5-(S)-hydroxymethyl-7-ethyl-9-(N-azetidinyl)methyl-10-hydroxycamptothecin], the IC50 in the test on CRL1790 is > 1000 µmol/L; with HL60 (setting [1]) it was 0.11 µmol/L; in the test on HT29, 2.5 µmol/L; in the test on MCF7 it was 6.7 µmol/L; in the test with A549, 1.17 µmol/L.
On to `CCc1c2c(nc3ccc(O)c(CN4CCC4)c13)-c1cc3c(c(=O)n1C2)COC(=O)C3(O)CC` (centres unmarked) [CC1, (N-azetidinyl)methyl-7-ethyl-10-hydroxycamptothecin, reference compound], for which the IC50 stood at 0.012 µmol/L in the test on HL60 (setting [1]), 0.07 µmol/L in the test with HT29, 0.99 µmol/L in the test with MCF7 and 0.071 µmol/L with A549.
As for `CCc1c2c(nc3ccc(O)c(CN4CCCC4)c13)-c1cc3c(c(=O)n1C2)COC(=O)C3(O)CC` (centres unmarked) [CC2, (N-pyrrolidinyl)methyl-7-ethyl-10-hydroxycamptothecin, reference compound], the IC50 in the test with HL60 (no unit or cell line printed, values match the HL60 line of Table 1, read-out: IC50) stood at 0.014 µmol/L; with HT29, 0.24 µmol/L; in the test with MCF7 it was 1.43 µmol/L; in the test on A549, 0.083 µmol/L.
On to `C=c1c2c(CC)c3cc(O)ccc3nc2c2cc3c(c(=O)n12)COC(=O)C3(O)CC` (centres unmarked) [Compound 5, 5-methylidene-7-ethyl-10-hydroxycamptothecin], for which the IC50 in the test on HT29 was determined as 0.15 µmol/L; in the test on A549, 1.94 µmol/L.
In the case of `CCc1c2c(nc3ccc(O)cc13)-c1cc3c(c(=O)n1C2)COC(=O)[C@]3(O)CC` [SN38, 7-ethyl-10-hydroxycamptothecin], the IC50 in the test on CRL1790 came out at 4.98 µmol/L; in the test with HL60 (setting [1]) it was 0.002 µmol/L; in the test with HT29, 0.02 µmol/L; in the test with MCF7, 0.66 µmol/L; in the test on A549, 0.028 µmol/L.
As to `CCc1c2c(nc3ccc(O)cc13)-c1cc3c(c(=O)n1[C@@H]2CO)COC(=O)[C@]3(O)CC` [Compound 4, 5-(S)-hydroxymethyl-7-ethyl-10-hydroxycamptothecin], the IC50 in the test on HL60 (setting [1]) amounted to 1.89 µmol/L; in the test with HT29, 14.8 µmol/L; in the test with MCF7, 14.9 µmol/L; in the test with A549, 6.54 µmol/L.
As for `CCc1c2c(nc3ccc(O)cc13)-c1cc3c(c(=O)n1[C@H]2CO)COC(=O)C3(O)CC` (stereo partly drawn) [Compound 3, 5-(R)-hydroxymethyl-7-ethyl-10-hydroxycamptothecin], the IC50 in the test with HL60 (setting [1]) turned out to be 0.72 µmol/L; in the test with HT29 it was 9.48 µmol/L; in the test with MCF7, 15.9 µmol/L; in the test on A549 it was 4.27 µmol/L.

The record behind these values is patent US12091417B2, “7-ethyl-10-hydroxycamptothecin derivatives for use in the treatment of cancer” (Narodowy Instytut Lekow, priority 2020, dated 2024).
